In patent publication US20170197979A1, “BENZOTHIADIAZOLAMINES” (BAYER PHARMA AKTIENGESELLSCHAFT, priority 2014, published 2017) one finds IC50 data, which are given here for five molecules.

The structures appear in SMILES notation.

T1 sequence (Q9BUB5 1-424 isoform Q9BUB5-2 T344D): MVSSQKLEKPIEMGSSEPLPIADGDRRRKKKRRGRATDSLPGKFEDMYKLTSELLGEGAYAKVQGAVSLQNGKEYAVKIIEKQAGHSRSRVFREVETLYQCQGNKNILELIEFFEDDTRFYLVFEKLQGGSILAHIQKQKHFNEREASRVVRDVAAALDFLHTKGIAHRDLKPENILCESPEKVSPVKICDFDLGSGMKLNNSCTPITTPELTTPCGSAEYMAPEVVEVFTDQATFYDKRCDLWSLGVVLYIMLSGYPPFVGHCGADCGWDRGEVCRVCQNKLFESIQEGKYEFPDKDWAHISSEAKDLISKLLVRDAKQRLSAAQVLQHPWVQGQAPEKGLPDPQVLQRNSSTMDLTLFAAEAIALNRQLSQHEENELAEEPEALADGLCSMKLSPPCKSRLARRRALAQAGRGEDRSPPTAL

The assay concerns the target T1, human full-length MKNK1 (Homo sapiens, UniProt Q9BUB5, T385D).
T1 construct: GST (N); purchased Carna Biosciences 02-145; host or cells: insect cells (baculovirus expression system)
Put plainly: MKNK1 kinase high ATP assay (TR-FRET). Type of assay: biochemical. The note with it: TR-FRET, high ATP (2 mM final), 15 min preincubation with enzyme, GST-MKNK1 (T344D); read-out: MKNK1 IC50. In general terms: TR-FRET usually uses a lanthanide donor and a delayed reading to cut background.
By IC50 is commonly meant the concentration at which inhibition is half-maximal. Consider `CCN(CCN(C)C)C(=O)[C@H]1CCc2c(sc3ncnc(Nc4cc5snnc5cc4OC)c23)C1` [Example 55, (7S)—N-[2-(Dimethylamino)ethyl]-N-ethyl-4-[(5-methoxy-1,2,3-benzothiadiazol-6-yl)amino]-5,6,7,8-tetrahydro[1]benzothieno[2,3-d]pyrimidine-7-carboxamide], for which the IC50 amounted to 8.9 nM.

Turning to `COc1cc2nnsc2cc1Nc1ncnc2sc3c(c12)CC[C@H](C(=O)NCCC(F)(F)F)C3` [Example 56, (7S)-4-[(5-Methoxy-1,2,3-benzothiadiazol-6-yl)amino]-N-(3,3,3-trifluoropropyl)-5,6,7,8-tetrahydro[1]benzothieno[2,3-d]pyrimidine-7-carboxamide], the IC50 is 7.3 nM.

Turning to `COc1cc2nnsc2cc1Nc1ncnc2sc3c(c12)CC[C@H](C(=O)N1C[C@H](O)[C@@H](O)C1)C3` [Example 57, [(3S,4S)-3,4-Dihydroxypyrrolidin-1-yl]{(7S)-4-[(5-methoxy-1,2,3-benzothiadiazol-6-yl)amino]-5,6,7,8-tetrahydro[1]benzothieno[2,3-d]pyrimidin-7-yl}methanone], the IC50 was 1.6 nM.

Turning to `COc1cc2nnsc2cc1Nc1ncnc2sc3c(c12)CC[C@H](C(=O)N1C[C@H]2C[C@@H]1CN2C)C3` [Example 58, {(7S)-4-[(5-Methoxy-1,2,3-benzothiadiazol-6-yl)amino]-5,6,7,8-tetrahydro[1]benzothieno[2,3-d]pyrimidin-7-yl}[(1R,4R)-5-methyl-2,5-diazabicyclo[2.2.1]hept-2-yl]methanone], the IC50 came out at 1.9 nM.

In the case of `CN1C[C@H]2C[C@@H]1CN2C(=O)[C@H]1CCc2c(sc3ncnc(Nc4ccc5nnsc5c4)c23)C1` [Example 59, [(7S)-4-(1,2,3-Benzothiadiazol-6-ylamino)-5,6,7,8-tetrahydro[1]benzothieno[2,3-d]pyrimidin-7-yl][(1R,4R)-5-methyl-2,5-diazabicyclo[2.2.1]hept-2-yl]methanone], the IC50 worked out at 3.2 nM.
